This is an account of results in patent US20260042745A1, “PYRROLIDINE-2-CARBOXAMIDE DERIVATIVES AS PROSTAGLANDIN E2 RECEPTOR 4 (EP4) AGONISTS FOR THE TREATMENT OF GASTROINTESTINAL AND PULMONARY DISEASES” (NXERA PHARMA UK LIMITED, priority 2022, published 2026).

The target in one data set is T1, human EP4 (Homo sapiens, UniProt P35408).
T1 construct: expressed in transfected cells; host or cells: HEK293 cells transduced with EP4 BacMam baculovirus
As to the kind of experiment: cAMP Gs functional assay (HTRF cAMP dynamic-2) in EP4-transfected HEK293 cells. Particulars: HEK293 cells transfected with EP4 BacMam virus; for EC50: 30 min at 37° C., HTRF cAMP, read-out: cAMP human EP4 pEC50 (converted); for cAMP human EP4 Emax: positive control PGE2. It is filed as cell-based. The method, then: Cloning, Baculovirus generation, large scale infection of HEK293 cells and membrane preparation: Human prostaglandin E2 receptor 4 (EP4) was cloned into pBacMam expression vector (GeneScript, UK). Transposition of EP4 DNA was performed using Invitrogen's Bac-to-Bac Baculovirus Expression Systems. P0 baculovirus was generated by transfecting SF9 Cells with bacmid DNA using Cellfectin II transfection reagent (ThermoFisher Scientific, UK). Following P0 generation P1 virus was then generated ready for large scale infection and membrane preparation. HEK293 cells were grown in DMEM (ThermoFisher Scientific, UK), supplemented with 10% heat inactivated fetal bovine serum (FBS). Cells were infected at a seeding density of 3.5 million cells/mL in 500 cm^3 flasks at 5% v/v EP4 Bacman. Expression was carried out over a 36 hour period at 37° C. with 5% CO2. The cells were removed using PBS and a cell scrapper. The cell culture was centrifuged at 2500 RPM for 10 mins at 4° C. The supernatant was then poured off and the pellet stored at −80° C. The pellet was defrosted and re-suspended in 15 mL of homogenising buffer (20 mM HEPES, 10 mM EDTA, pH 7.4). Then homogenised in mechanical homogeniser (VMR) for 10 seconds. The membrane was centrifuged in centrifuge tubes at 40,000 g for 15 mins at 4° C. The supernatant was poured away and re-suspended in 15 mL of homogenising buffer and homogenised for 20 seconds. The membrane was then centrifuged at 40,000 g for 45 mins at 4° C. The membrane was then re-suspended in 3 mL of storage buffer (20 mM HEPES, 0.1 mM EDTA, pH 7.4) mixing well. The resulting membranes were then stored at −80° C.
cAMP Gs Functional Assay: cAMP production following EP4 receptor activation was determined using the Homogeneous Time-Resolved Fluorescence (HTRF) cAMP dynamic-2 assay (Cisbio, France). HEK293 cells were transfected using a 0.5% EP4 Bacman virus for 36 hours, before dissociating the cells, and freezing at −150° C.
On the day of testing, increasing concentration of test compounds, alongside positive controls ([…] PGE2 (Tocris, Abingdon, UK)) and negative control (DMSO (Sigma-Aldrich, UK) were added to a ProxiPlate-384 Plus, White 384-shallow well Mircoplate, (PerkinElmer, USA) using the ECHO dispense.
Cells were defrosted in a water bath and resuspended in DMEM supplemented with 10% FBS before centrifuging at 1200 RPM for 5 mins to form a pellet. The pellet was resuspended in assay buffer (DMEM+0.5 mM IBMX (Tocris, Abingdon, UK)) to 0.5×10^6 cells/mL. Cell suspension, for a final assay concentration of 5000 cell/well was added using the multidrop to the pre-dispensed assay plate. The plate was then incubated at 37° C. for 30 mins, with 5% CO2. The cAMP production was determined as manufacturer's instructions, before plates were read on a PheraStar fluorescence plate reader (BMG LabTech, Germany).

A short description of data set [1]: Unidirectional Caco-2 cell permeability assay. It is filed as in vitro ADME. Particulars: human, apical pH 6.5, basolateral pH 7.4, 1 hour, 37° C., n=2. The procedure:
Caco-2 cells (ECACC) were seeded onto 24-well Transwell plates at 2×10^5 cells per well and used in confluent monolayers after a 21 day culture at 37° C. under 500 CO2. Test compounds were incubated at 10 μM, 0.2% DMSO final, n=2 in assay buffer (Hanks balanced salt solution supplemented with 25 mM HEPES, adjusted to pH 6.5). Hanks balanced salt solution supplemented with 25 mM HEPES, adjusted to pH 7.4 (0.2% DMSO final) was used for the basolateral chamber (as receiver).
Incubations were performed at 37° C., with samples removed from both donor and acceptor chambers at T=0 and 1 hour and compound analysed by mass spectrometry (LC-MS/MS) including an analytical internal standard ([…] carbamazepine).
Apparent permeability (Papp) values are shown in Table 3 and were determined from the relationship:
Where V is the volume of each Transwell compartment (apical 125 μL, basolateral 600 μL), and concentrations are the relative MS responses for compound (normalized to internal standard) in the donor chamber before incubation and acceptor chamber at the end of the incubation Area=area of cells exposed for drug transfer (0.33 cm^2).
Lucifer Yellow (LY) was added to the apical buffer in all wells to assess viability of the cell layer. As LY cannot freely permeate lipophilic barriers, a high degree of LY transport indicates poor integrity of the cell layer and wells with a LY Papp>10×10^−6 cm/s were rejected.
Compound recovery from the wells was determined from MS responses (normalized to internal standard) in donor and acceptor chambers at the end of incubation compared to response in the donor chamber pre-incubation.

T1 sequence (P35408 whole entry): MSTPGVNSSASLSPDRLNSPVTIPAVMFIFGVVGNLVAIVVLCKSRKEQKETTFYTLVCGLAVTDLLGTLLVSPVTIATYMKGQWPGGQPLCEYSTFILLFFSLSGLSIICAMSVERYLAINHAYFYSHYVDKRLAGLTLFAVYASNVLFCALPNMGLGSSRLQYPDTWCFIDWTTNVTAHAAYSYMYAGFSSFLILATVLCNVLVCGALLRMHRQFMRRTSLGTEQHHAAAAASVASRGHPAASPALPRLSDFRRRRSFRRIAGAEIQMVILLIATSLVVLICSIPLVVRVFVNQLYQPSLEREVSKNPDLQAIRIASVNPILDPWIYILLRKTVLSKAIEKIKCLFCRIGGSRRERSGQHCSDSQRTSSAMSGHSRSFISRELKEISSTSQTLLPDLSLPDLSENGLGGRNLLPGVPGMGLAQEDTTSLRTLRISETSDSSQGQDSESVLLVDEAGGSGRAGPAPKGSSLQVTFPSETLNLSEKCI

`Cc1cc(C(=O)O)ccc1-c1cccc(CN2CCC[C@@H]2C(=O)N[C@@H](C)c2ccc(C(=O)O)cc2)c1` [Example 9, 3′-(((R)-2-(((S)-1-(4-carboxyphenyl)ethyl)carbamoyl)pyrrolidin-1-yl)methyl)-2-methyl-[1,1′-biphenyl]-4-carboxylic acid]: on human EP4, the EC50 was 200 nM and the cAMP human EP4 Emax is 96%. For the same compound, the Papp A→B at 1 h, 10 μM in data set [1] stood at 0.33 ×10⁻⁶ cm/s.

In the case of `Cc1cc(O)ccc1-c1cc(O)cc(CN2CCC[C@@H]2C(=O)N[C@@H](C)c2ccc(C(=O)O)cc2)c1` [Example 33, 4-((S)-1-((R)-1-((4′,5-dihydroxy-2′-methyl-[1,1′-biphenyl]-3-yl)methyl)pyrrolidine-2-carboxamido)ethyl)benzoic acid], at human EP4, the EC50 was 0.0316 nM and the cAMP human EP4 Emax was 97%. In data set [1], the Papp A→B at 1 h, 10 μM was found to be 0.32 ×10⁻⁶ cm/s.

For `Cc1cc(S(N)(=O)=O)ccc1-c1cncc(CN2CCC[C@@H]2C(=O)N[C@@H](C)c2ccc(C(=O)O)cc2)c1` [Example 24, 4-((S)-1-((R)-1-((5-(2-methyl-4-sulfamoylphenyl)pyridin-3-yl)methyl)pyrrolidine-2-carboxamido)ethyl)benzoic acid], at human EP4, the EC50 is 25.1 nM and the cAMP human EP4 Emax came to 99%. The compound also returned a Papp A→B at 1 h, 10 μM in data set [1] of 0.16 ×10⁻⁶ cm/s.

On to `Cc1cc(C(N)=O)ccc1-c1cc(O)cc(CN2CCC[C@@H]2C(=O)N[C@@H](C)c2ccc(C(=O)O)c(O)c2)c1` [Example 34, 4-((S)-1-((R)-1-((4′-carbamoyl-5-hydroxy-2′-methyl-[1,1′-biphenyl]-3-yl)methyl)pyrrolidine-2-carboxamido)ethyl)-2-hydroxybenzoic acid], for which, on human EP4, the EC50 was 0.2 nM and the cAMP human EP4 Emax amounted to 100%. Moreover, in data set [1], the Papp A→B at 1 h, 10 μM worked out at 0.24 ×10⁻⁶ cm/s.

Regarding `Cc1cc(C(N)=O)ccc1-c1cccc(CN2CC3CC2(C(=O)NC2(c4ccc(C(=O)O)cc4)CC2)C3)c1` [Example 29, 4-(1-(2-((4′-carbamoyl-2′-methyl-[1,1′-biphenyl]-3-yl)methyl)-2-azabicyclo[2.1.1]hexane-1-carboxamido)cyclopropyl)benzoic acid], at human EP4, the EC50 was 6.31 nM and the cAMP human EP4 Emax was found to be 91%. Also, the Papp A→B at 1 h, 10 μM in data set [1] was less than 0.11 ×10⁻⁶ cm/s.

In the case of `Cc1cc(S(N)(=O)=O)ccc1-c1cccc(CN2CCC[C@@H]2C(=O)NC2(c3ccc(C(=O)O)cc3)CC2)c1` [Example 30, (R)-4-(1-(1-((2′-methyl-4′-sulfamoyl-[1,1′-biphenyl]-3-yl)methyl)pyrrolidine-2-carboxamido)cyclopropyl)benzoic acid], on human EP4, the EC50 was 0.501 nM and the cAMP human EP4 Emax was 99%. Further, the Papp A→B at 1 h, 10 μM in data set [1] was determined as 0.29 ×10⁻⁶ cm/s.

For the compound `Cc1cc(C(N)=O)ccc1-c1cccc(CN2CCC[C@@H]2C(=O)N[C@@H](C)c2ccc(C(=O)O)cc2)c1` [Example 3, 4-((S)-1-((R)-1-((4′-carbamoyl-2′-methyl-[1,1′-biphenyl]-3-yl)methyl)pyrrolidine-2-carboxamido)ethyl)benzoic acid], at human EP4, the EC50 was 12.6 nM and the cAMP human EP4 Emax came to 100%. The compound further came in with a Papp A→B at 1 h, 10 μM in data set [1] of 1.18 ×10⁻⁶ cm/s.

`C[C@H](NC(=O)[C@H]1CCCN1Cc1ccc(O)c(-c2ccc(C(N)=O)cc2)c1)c1ccc(C(=O)O)cc1` [Example 12, 4-((S)-1-((R)-1-((4′-carbamoyl-6-hydroxy-[1,1′-biphenyl]-3-yl)methyl)pyrrolidine-2-carboxamido)ethyl)benzoic acid]: on human EP4, the EC50 was 7.94 nM and the cAMP human EP4 Emax came to 89%. In data set [1], this compound displayed a Papp A→B at 1 h, 10 μM of 0.26 ×10⁻⁶ cm/s.

For `Cc1cc(C(N)=O)ccc1-c1cccc(CN2CCC[C@@H]2C(=O)NCc2ccc(C(=O)O)c(O)c2)c1` [Example 15, (R)-4-((1-((4′-carbamoyl-2′-methyl-[1,1′-biphenyl]-3-yl)methyl)pyrrolidine-2-carboxamido)methyl)-2-hydroxybenzoic acid], at human EP4, the EC50 is 31.6 nM and the cAMP human EP4 Emax was 96%. This compound came in with an apical-to-basolateral permeability (Papp A→B) at 1 h, 10 μM in data set [1] of less than 0.1 ×10⁻⁶ cm/s.

With `C[C@H](NC(=O)[C@H]1CCCN1Cc1cccc(-c2ccc(O)cc2C#N)c1)c1ccc(C(=O)O)cc1` [Example 8, 4-((S)-1-((R)-1-((2′-cyano-4′-hydroxy-[1,1′-biphenyl]-3-yl)methyl)pyrrolidine-2-carboxamido)ethyl)benzoic acid], at human EP4, the EC50 is 31.6 nM and the cAMP human EP4 Emax worked out at 74%. The Papp A→B at 1 h, 10 μM in data set [1] amounted to 2.1 ×10⁻⁶ cm/s.

Take `Cc1cc(S(N)(=O)=O)ccc1-c1cccc(CN2CCC[C@@H]2C(=O)N[C@@H](C)c2ccc(C(=O)O)cc2)c1` [Example 2, 4-((S)-1-((R)-1-((2′-methyl-4′-sulfamoyl-[1,1′-biphenyl]-3-yl)methyl)pyrrolidine-2-carboxamido)ethyl)benzoic acid]: on human EP4, the EC50 was 1.58 nM and the cAMP human EP4 Emax was found to be 99%. For the same compound, the Papp A→B at 1 h, 10 μM in data set [1] turned out to be 1.14 ×10⁻⁶ cm/s.

As to `Cc1cc(O)ccc1-c1cccc(CN2C[C@H](O)C[C@@H]2C(=O)N[C@@H](C)c2ccc(C(=O)O)cc2)c1` [Example 5, 4-((S)-1-((2R,4R)-4-hydroxy-1-((4′-hydroxy-2′-methyl-[1,1′-biphenyl]-3-yl)methyl)pyrrolidine-2-carboxamido)ethyl)benzoic acid], at human EP4, the EC50 was 63.1 nM and the cAMP human EP4 Emax is 80%. Besides, the Papp A→B at 1 h, 10 μM in data set [1] came out at 0.36 ×10⁻⁶ cm/s.

Regarding `Cc1cc(S(N)(=O)=O)ccc1-c1cccc(CN2CCC[C@@H]2C(=O)N[C@@H](C)c2ccc(C(=O)O)c(O)c2)c1` [Example 18, 2-hydroxy-4-((S)-1-((R)-1-((2′-methyl-4′-sulfamoyl-[1,1′-biphenyl]-3-yl)methyl)pyrrolidine-2-carboxamido)ethyl)benzoic acid], at human EP4, the EC50 was 3.16 nM and the cAMP human EP4 Emax amounted to 95%. This compound also came in with a Papp A→B at 1 h, 10 μM in data set [1] of 0.11 ×10⁻⁶ cm/s.

Turning to `Cc1cc(C(N)=O)ccc1-c1cc(CN2CCC[C@@H]2C(=O)N[C@@H](C)c2ccc(C(=O)O)cc2)ccc1O` [Example 14], on human EP4, the EC50 was 158 nM and the cAMP human EP4 Emax was found to be 100%. In addition, the Papp A→B at 1 h, 10 μM in data set [1] is 0.19 ×10⁻⁶ cm/s.

On to `Cc1cc(S(N)(=O)=O)ccc1-c1cccc(CN2C[C@H](O)C[C@@H]2C(=O)N[C@@H](C)c2ccc(C(=O)O)cc2)c1` [Example 4, 4-((S)-1-((2R,4R)-4-hydroxy-1-((2′-methyl-4′-sulfamoyl-[1,1′-biphenyl]-3-yl)methyl)pyrrolidine-2-carboxamido)ethyl)benzoic acid], for which, at human EP4, the EC50 was 158 nM and the cAMP human EP4 Emax is 98%. Besides, the Papp A→B at 1 h, 10 μM in data set [1] came out at 0.26 ×10⁻⁶ cm/s.

`Cc1cc(C(N)=O)ccc1-c1cc(O)cc(CN2C[C@H](O)C[C@@H]2C(=O)N[C@@H](C)c2ccc(C(=O)O)cc2)c1` [Example 21, 4-((S)-1-((2R,4R)-1-((4′-carbamoyl-5-hydroxy-2′-methyl-[1,1′-biphenyl]-3-yl)methyl)-4-hydroxypyrrolidine-2-carboxamido)ethyl)benzoic acid]: at human EP4, the EC50 was 7.94 nM and the cAMP human EP4 Emax is 96%. In addition, the Papp A→B at 1 h, 10 μM in data set [1] is less than 0.11 ×10⁻⁶ cm/s.
